In ChEMBL document CHEMBL1201862, “PubChem BioAssay data set” (2004):
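In this assay, cells in 96-well plates receive the compound at five concentrations for 48 hours. Endpoints are linearly interpolated between the surrounding concentrations. GI50 marks 50% less growth.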 The source made the active and inactive calls. Cut-off read from the data, not from the text of the source: active = GI50 up to about 1.1 µM and inactive = higher. Square brackets hold non-standard residues; d marks the D form. Peptide text beside a SMILES is read from it. * marks the point of attachment. X26 = COC1=CC(=O)N(C(=O)[C@@H](O*)C(C)C)[C@H]1Cc1ccccc1; NMeV = CN[C@H](C(=O)O)C(C)C; Hexanoyl = CCCCCC(=O)*

Assays:
Experiment in all cases: NCI-60 cell line screen, 48 h
HOP-18 = test system: HOP-18
LXFL 529 = test system: LXFL 529
DMS-273 = test system: DMS-273
DMS-114 = test system: DMS-114
KM-20L2 = test system: KM-20L2
M19-MEL = test system: M19-MEL
Hs-578T = test system: Hs-578T
XF498 = test system: XF498

In the case of `CCOC(=O)c1c(-c2[nH]c(C(=O)OCc3ccccc3)c(C)c2C(=O)OCC)[nH]c(C(=O)OCc2ccccc2)c1C`, the GI50 (HOP-18) is reported as > 100 µM (inactive), the GI50 (LXFL 529) is reported as > 100 µM (inactive) and the GI50 (DMS-273) is reported as > 100 µM (inactive). The GI50 (DMS-114) was > 100 µM (inactive), the GI50 (KM-20L2) was > 100 µM (inactive) and the GI50 (M19-MEL) was > 100 µM (inactive).

`Nc1nc(Cl)nc2c1ncn2C1CCC(COP(=O)(O)OP(=O)(O)OP(=O)(O)O)O1` (stereo not drawn) was tested, and the GI50 (Hs-578T) was 29.7 µM (inactive).

With `O=S(=O)(CC1=NC2C=CC=CC2N=C1)NCc1ccccc1` (stereo not drawn) the GI50 (HOP-18) was > 100 µM (inactive), the GI50 (LXFL 529) was > 100 µM (inactive) and the GI50 (DMS-273) was > 100 µM (inactive). For the same compound, the GI50 (XF498) was 24.3 µM (inactive), the GI50 (KM-20L2) was > 100 µM (inactive) and the GI50 (M19-MEL) was > 100 µM (inactive).

With `O=C(/C=C/c1cccc(Br)c1)N1CCN(CCOC(c2ccccc2)c2ccccc2)CC1` the GI50 (Hs-578T) was > 100 µM (inactive).

`CCOC(=O)c1cn2c(n1)sc1c(Cl)c(Cl)ccc12` was tested, and the GI50 (Hs-578T) was 5.33 µM (inactive).

With `CC1=CC(=O)N2C(OC[C@@H]2c2ccccc2)O1` (stereo partly drawn) the GI50 (HOP-18) was 20.7 µM (inactive), the GI50 (LXFL 529) was > 100 µM (inactive) and the GI50 (XF498) was > 100 µM (inactive). For the same compound, the GI50 (KM-20L2) was > 100 µM (inactive) and the GI50 (M19-MEL) was > 100 µM (inactive).

With `COC(=O)C1=C(C(=O)OC)c2cc(OC)ccc2C(C(=S)N(C)C)S1` (stereo not drawn) the GI50 (Hs-578T) was > 100 µM (inactive).

With `Cc1cnc2sn(-c3ccc(Oc4ccccc4)cc3)c(=O)c2c1` the GI50 (Hs-578T) was 21.1 µM (inactive).

With `Nc1ccccc1N/C=C\C(=O)C(Cl)(Cl)Cl` the GI50 (Hs-578T) was 48.8 µM (inactive).

`O=c1[nH]c(=O)n(CCOc2ccccc2)cc1Nc1ccccc1` was tested, and the GI50 (Hs-578T) was 52.5 µM (inactive).

With `CCCCCNC(=O)OC1CCn2c1nc1c2C(=O)C(C)=C(N2CC2)C1=O` (stereo not drawn) the GI50 (Hs-578T) was 2.32 µM (inactive).

With `C#CC(O)/C=C/C(O)CCCC(O)CC#CC(O)C#CCCCCC(O)/C=C/CCCC(O)/C=C/CCCCCCCCCCCCCC(O)C(O)C#CC(=O)O` (stereo not drawn) the GI50 (Hs-578T) was > 25 µM (inactive).

`N=C1CSC2=NC3=C(CCC/C3=C\c3ccccc3)C(c3ccccc3)N12` (stereo not drawn) was tested, and the GI50 (LXFL 529) was 4.89 µM (inactive), the GI50 (DMS-273) was 3.8 µM (inactive) and the GI50 (XF498) was 20.7 µM (inactive). The GI50 (DMS-114) was 2.8 µM (inactive), the GI50 (KM-20L2) was 4.37 µM (inactive) and the GI50 (M19-MEL) was 5.19 µM (inactive).

For `Nc1ccccc1/N=N/c1c(S(=O)(=O)O)cc2cc(S(=O)(=O)O)cc(O)c2c1O`, the GI50 (Hs-578T) was > 100 µM (inactive).

`C=CN1CCN(c2ccccc2)P1(=O)Oc1ccccc1` (stereo not drawn) was tested, and the GI50 (Hs-578T) was 33.7 µM (inactive).

`CC(C)OP(=O)(OC(C)C)/C(=N/Nc1ccc([N+](=O)[O-])cc1)Nc1ccccc1` was tested, and the GI50 (LXFL 529) was 19.5 µM (inactive), the GI50 (DMS-273) was 25.3 µM (inactive) and the GI50 (XF498) was 22.2 µM (inactive). For the same compound, the GI50 (DMS-114) was 20.4 µM (inactive), the GI50 (KM-20L2) was 24.2 µM (inactive) and the GI50 (M19-MEL) was 47.2 µM (inactive).

With `c1ccc(CCCCNCc2cc(CNCCCCc3ccccc3)cc(CNCCCCc3ccccc3)c2)cc1` the GI50 (Hs-578T) was 1.5 µM (inactive).

`Cc1cnc2[nH]c(-c3ccccc3)cc(=O)c2c1` was tested, and the GI50 (Hs-578T) was 0.0171 µM (active).

With `O=[N+]([O-])C(=C1NCCN1)C(Cl)=C(Cl)Cl` the GI50 (Hs-578T) was > 100 µM (inactive).

In the case of `COC(=O)[C@@H]1[C@H](O)[C@H](C)[C@H](O)[C@H](C)/C=C\C=C(\C)C(=O)Nc2c(C)c(OC(C)=O)c3c(c2O)C(=O)C(C)=C2OCOC(=C23)/C(C)=C/[C@@H](O)[C@H](O)[C@@H](C)[C@H]1OC(C)=O`, the GI50 (Hs-578T) is reported as > 100 µM (inactive).

`CC1=NNC(=O)C1C1CC(c2c[nH]c3ccccc23)=NN(c2ccccc2)C1=O` (stereo not drawn) was tested, and the GI50 (Hs-578T) was 29.8 µM (inactive).

With `O=C(COc1ccc(OCC(=O)N2C(=O)CC/C2=N\c2ccc(Cl)cc2)cc1)N1C(=O)CS/C1=N\c1ccc(Cl)cc1` the GI50 (Hs-578T) was > 100 µM (inactive).

In the case of `COc1cc(/C=C/c2sc3ccccc3[n+]2C)ccc1N(C)C`, the GI50 (Hs-578T) is reported as 41.3 µM (inactive).

In the case of `O=C1C=CC(=O)c2c1ccc1c3ccccc3n(CCCCCCCCn3c4ccccc4c4ccc5c(c43)C(=O)C=CC5=O)c21`, the GI50 (Hs-578T) is reported as 30.8 µM (inactive).

For `O=S1(=O)OCCOS(=O)(=O)C1(Br)Cc1ccccc1`, the GI50 (LXFL 529) was > 100 µM (inactive), the GI50 (DMS-273) was > 100 µM (inactive) and the GI50 (XF498) was > 100 µM (inactive). The GI50 (DMS-114) was > 100 µM (inactive), the GI50 (KM-20L2) was > 100 µM (inactive) and the GI50 (M19-MEL) was > 100 µM (inactive).

For `N#Cc1ccc(/N=N/N2CCCC2)cc1`, the GI50 (Hs-578T) was > 100 µM (inactive).

`C=C1C(=O)OC2C1C(OC(=O)/C(C)=C/C)CC1(C)C(=O)CCC(=C)C21` (stereo not drawn) was tested, and the GI50 (Hs-578T) was 27.8 µM (inactive).

`O=C1N/C(=N/N=C/C(O)C(O)C(O)C(O)CO)N/C1=C\c1ccco1` (stereo not drawn) was tested, and the GI50 (Hs-578T) was > 100 µM (inactive).

In the case of `C/C=C(\C)CC/C=C/CO[Si](C)(C)C(C)(C)C`, the GI50 (Hs-578T) is reported as > 100 µM (inactive).

`C=C1C(=O)OC2C1CC[C@H](C)C13OC(=O)CC1[C@@]23C` (stereo partly drawn) was tested, and the GI50 (LXFL 529) was > 100 µM (inactive), the GI50 (DMS-273) was > 100 µM (inactive) and the GI50 (DMS-114) was > 100 µM (inactive). The GI50 (M19-MEL) was > 100 µM (inactive).

`CC(C)CCC[C@@H](C)[C@H]1CCC2C3CC=C4C[C@@H](Oc5c6ccccc6nc6ccccc56)CCC4C3CCC21` (stereo partly drawn) was tested, and the GI50 (Hs-578T) was > 50 µM (inactive).

For `C=CCOC(=O)N1[C@H]2C#C/C=C\C#C[C@]3(O)C(=O)C[C@H](C)[C@]24O[C@]43C2=CC(=O)C=CC21OC` (stereo partly drawn), the GI50 (Hs-578T) was 49 µM (inactive).

With `CC1(C)OC(=O)C(C)(C)OC1=O` the GI50 (Hs-578T) was > 100 µM (inactive).

For `CCCCCC(=O)N[C@H](C(=O)N[C@H](C(=O)N(C)[C@H](C(=O)N1CCC[C@H]1C(=O)N1CCC[C@H]1C(=O)O[C@H](C(=O)N1C(=O)C=C(OC)[C@@H]1Cc1ccccc1)C(C)C)C(C)C)C(C)C)C(C)C` (Hexanoyl-VV[NMeV]PP-X26), the GI50 (Hs-578T) was 68.2 µM (inactive).

In the case of `NCCCN1c2ccccc2Sc2ccc(Cl)cc21`, the GI50 (Hs-578T) is reported as 5.01 µM (inactive).

`CC(=O)OCC1OC(OC2CC3C(C)(C)C(O)CC[C@]3(C)C3CCC45CC4(CCC5[C@@H](C)CC(O)C(O)C(C)(C)O)[C@]23C)C(O)C(O)C1O` (stereo partly drawn) was tested, and the GI50 (Hs-578T) was > 10 µM (inactive).

With `O=C(NCCCCN(CCCNC(=O)C(F)(F)F)Cc1ccccc1)C(F)(F)F` the GI50 (Hs-578T) was > 100 µM (inactive).

With `Cc1cc(C)cc(Nc2cc(O)nc(O)n2)c1` the GI50 (Hs-578T) was > 100 µM (inactive).

With `COC[C@@H](/N=C/c1ccc(OC)cc1)C(C)C` the GI50 (Hs-578T) was > 100 µM (inactive).

For `CC(N)/C(N)=N/O` (stereo not drawn), the GI50 (Hs-578T) was > 100 µM (inactive).

For `COc1ccc2c(C)cc(N/N=C/c3ccc(C)s3)nc2c1`, the GI50 (Hs-578T) was 31.6 µM (inactive).

In the case of `CC(CC=O)Nc1nn2c(=O)c3ccccc3nc2s1` (stereo not drawn), the GI50 (Hs-578T) is reported as > 100 µM (inactive).

In the case of `CC(=O)OCC1OC(NC(=S)Nn2c(-c3ccccc3)nc3ccccc3c2=O)C(OC(C)=O)C(OC(C)=O)C1OC(C)=O` (stereo not drawn), the GI50 (Hs-578T) is reported as 78.7 µM (inactive).

With `C=CCN1C[C@H](C)N([C@@H](c2ccc(C(=O)N3CCCCC3)cc2)c2cccc(OC)c2)C[C@H]1C` the GI50 (Hs-578T) was 86.7 µM (inactive).

In the case of `Cc1ccc(-c2cc(N)n(-c3nc4c([nH]3)c(=O)n(C)c(=O)n4C)n2)cc1`, the GI50 (Hs-578T) is reported as 23 µM (inactive).

With `CCOC(=O)NC(C(=O)OCC)(N1CCN(c2cc3c(cc2F)c(=O)c(C(=O)O)cn3CC)CC1)C(F)(F)F` (stereo not drawn) the GI50 (Hs-578T) was > 100 µM (inactive).

For `CN(C)c1ccccc1CC(c1c[nH]c2ccccc12)c1c[nH]c2ccccc12`, the GI50 (DMS-273) was 13 µM (inactive), the GI50 (XF498) was 17.3 µM (inactive) and the GI50 (DMS-114) was 7.62 µM (inactive). For the same compound, the GI50 (KM-20L2) was 10.7 µM (inactive) and the GI50 (M19-MEL) was 14.9 µM (inactive).

`[O-][n+]1c2ccccc2[n+]([O-])c2cc(Br)ccc21` was tested, and the GI50 (Hs-578T) was 35.2 µM (inactive).

For `COc1cc(C2C(Cl)C(=O)N2NC(=O)c2ccc(NC(C)=O)cc2)ccc1O` (stereo not drawn), the GI50 (LXFL 529) was > 100 µM (inactive), the GI50 (DMS-273) was > 100 µM (inactive) and the GI50 (XF498) was > 100 µM (inactive). The GI50 (DMS-114) was > 100 µM (inactive), the GI50 (KM-20L2) was > 100 µM (inactive) and the GI50 (M19-MEL) was > 100 µM (inactive).

For `CC1CC2OC(=N)C1(C#N)C2(C#N)C#N` (stereo not drawn), the GI50 (Hs-578T) was 33.8 µM (inactive).

In the case of `Cl/C(=C\C=N\c1ccc(I)cc1)c1ccc2ccccc2c1`, the GI50 (Hs-578T) is reported as 28.4 µM (inactive).

For `CC1=C(C(=O)Nc2ccccc2)C(c2cccc3ccccc23)C(C(=O)Nc2ccccc2)=C(C)N1`, the GI50 (HOP-18) was 24 µM (inactive), the GI50 (LXFL 529) was 15.9 µM (inactive) and the GI50 (DMS-273) was 19.1 µM (inactive). For the same compound, the GI50 (DMS-114) was 24.9 µM (inactive), the GI50 (KM-20L2) was 19.3 µM (inactive) and the GI50 (M19-MEL) was 19 µM (inactive).
